Experiments:
Type in all cases: cell-based
[1] = tested on: Wnt activity (Sp5-Luc reporter, SW480 colon carcinoma cells); experiment: Wnt activity screening assay: Sp5-Luc reporter gene in SW480 colon carcinoma cells; settings: Homo sapiens, overnight incubation, 10-point curve from 10 μM
Source text: The screening assay for Wnt activity is described as follows. Reporter cell lines can be generated by stably transducing cancer cell lines (e.g., colon cancer) or primary cells (e.g., IEC-6 intestinal cells) with a lentiviral construct that includes a Wnt-responsive promoter driving expression of the firefly luciferase gene.
SW480 colon carcinoma cells were transduced with a lentiviral vector expressing luciferase with a human Sp5 promoter consisting of a sequence of eight TCF/LEF binding sites. SW480 cells stably expressing the Sp5-Luc reporter gene and a hygromycin resistance gene were selected by treatment with 150 μg/mL of hygromycin for 7 days. These stably transduced SW480 cells were expanded in cell culture and used for all further screening activities. Each compound was dissolved in DMSO as a 10 mM stock and used to prepare compound source plates. Serial dilution (1:3, 10-point dose-response curves starting from 10 μM) and compound transfer was performed using the ECHO 550 (Labcyte, Sunnyvale, Calif.) into 384-well white solid bottom assay plates (Greiner Bio-One) with appropriate DMSO backfill for a final DMSO concentration of 0.1%. For Sp5-Luc reporter gene assays, the cells were plated at 4,000 cells/well in 384-well plates with medium containing 1% fetal bovine serum and incubated overnight at 37° C. and 5% CO2. Following incubation, 20 μl of BrightGlo luminescence reagent (Promega) was added to each well of the 384-well assay plates. The plates were placed on an orbital shaker for 2 min and then luminescence was quantified using the Envision (Perkin Elmer) plate reader. Readings were normalized to DMSO only treated cells, and normalized activities were utilized for EC50 calculations using the dose-response log (inhibitor) vs. response-variable slope (four parameters) nonlinear regression feature available in GraphPad Prism 5.0 (or Dotmatics). For EC50 of >10 μM, the percent inhibition at 10 μM is provided.

SW480 colon cancer cells = experiment: Cell viability assay (CellTiter-Blue), SW480 colon cancer cells; settings: Homo sapiens, 96 h, four days, CellTiter-Blue
Procedure: Representative compounds were screened using the following assay procedure to assess the effect on cell viability as described below.
Each compound was dissolved in DMSO as a 10 mM stock and used to prepare compound source plates. Serial dilution (1:3, 8-point dose-response curves from 10 μM to 0.0045 μM) and compound transfer was performed using the ECHO 550 (Labcyte, Sunnyvale, Calif.) into 96-well clear bottom, black-walled plates (Corning—Costar).
Approximately 2×10^3 SW480 colon cancer cells were seeded into each well and allowed to incubate in the presence or absence of compound for four days at 37° C./5% CO2. Eight replicates of DMSO-treated cells served as controls and cells treated with compound were performed in duplicate.
After incubation, 20 μL of CellTiter-Blue (Promega) was added to each well allowed to incubate for approximately 3 hours. This reagent was a buffered solution which contains resazurin, metabolically active cells were able to reduce rezarurin (blue) into resorufin (pink) which was highly fluorescent. This measured fluorescence was used as a readout for cell viability.
After incubation, the plates were read at Ex 560 nm Em 590 nm (Cytation 3, BioTek). Dose-response curves were generated and EC50 concentration values were calculated using non-linear regression curve fit in the GraphPad Prism (San Diego, Calif.) or Dotmatics' Studies Software (Bishops Stortford, UK). For EC50 of >10 μM, the percent inhibition at 10 μM is provided.

[2] = tested on: primary human fibroblasts derived from IPF patients (LL29 cells) treated with TGF-β1; experiment: Inhibition of the fibrotic process: αSMA staining in TGF-β1 treated primary human fibroblasts from IPF patients (LL29 cells); settings: Fibroblast, 96 h, TGF-β1 20 ng/mL, 4 days, % αSMA positive cells
Source text: Representative compounds were screened using primary human fibroblasts (derived from IPF patients) treated with TGF-β1 to determine their ability to inhibit the fibrotic process.
Primary human fibroblasts derived from IPF patients (LL29 cells) [^1Xiaoqiu Liu, et. al., “Fibrotic Lung Fibroblasts Show Blunted Inhibition by cAMP Due to Deficient cAMP Response Element-Binding Protein Phosphorylation”, Journal of Pharmacology and Experimental Therapeutics (2005), 315(2), 678-687; ^2Watts, K. L., et. al., “RhoA signaling modulates cyclin D1 expression in human lung fibroblasts; implications for idiopathic pulmonary fibrosis”, Respiratory Research (2006), 7(1), 88] were obtained from American Type Culture Collection (ATCC) and expanded in F12 medium supplemented with 15% Fetal Bovine Serum and Penicillin/Streptomycin.
Each compound was dissolved in DMSO as a 10 mM stock and used to prepare compound source plates. Serial dilution (1:2, 11-point dose-response curves from 10 μM to 1.87 nM) and compound transfer was performed using the ECHO 550 (Labcyte, Sunnyvale, Calif.) into 384-well clear bottom assay plates (Greiner Bio-One) with appropriate DMSO backfill for a final DMSO concentration of 0.1%. LL29 cells are plated at 1,500 cells/well in 80 μL/well F12 medium supplemented with 1% Fetal Bovine Serum. One hour after addition of the cells, TGF-β1 (Peprotech; 20 ng/mL) was added to the plates to induce fibrosis (ref. 1 and 2 above). Wells treated with TGF-β1 and containing DMSO were used as controls. Cells were incubated at 37° C. and 5% CO2 for 4 days. Following incubation for 4 days, SYTOX green nucleic acid stain (Life Technologies [Thermo Fisher Scientific]) was added to the wells at a final concentration of 1 μM and incubated at room temperature for 30 min. Cells were then fixed using 4% formaldehyde (Electron Microscopy Sciences), washed 3 times with PBS followed by blocking and permeabilization using 3% Bovine Serum Albumin (BSA; Sigma) and 0.3% Triton X-100 (Sigma) in PBS. Cells were then stained with antibody specific to α-smooth muscle actin (αSMA; Abcam) (ref. 1 and 2 above) in 3% Bovine Serum Albumin (BSA; Sigma) and 0.3% Triton X-100 (Sigma) in PBS, and incubated overnight at 4° C. Cells were then washed 3 times with PBS, followed by incubation with Alexa Flor-647 conjugated secondary antibody (Life Technologies [Thermo Fisher Scientific]) and DAPI at room temperature for 1 hour. Cells were then washed 3 times with PBS and plates were sealed for imaging. αSMA staining was imaged by excitation at 630 nm and emission at 665 nm and quantified using the Compartmental Analysis program on the CellInsight CX5 (Thermo Scientific). Dead or apoptotic cells were excluded from analysis based on positive SYTOX green staining. % of total cells positive for αSMA were counted in each well and normalized to the average of 11 wells treated with TGF-β1 on the same plate using Dotmatics' Studies Software. The normalized averages (fold change over untreated) of 3 replicate wells for each compound concentration were used to create dose-responses curves and EC50 values were calculated using non-linear regression curve fit in the Dotmatics' Studies Software. For EC50 of >10 μM, the percent inhibition at 10 μM is provided.

IL-6 (THP-1 cells) = experiment: IL-6 inhibition in LPS-stimulated THP-1 human monocyte cells (HTRF); settings: LPS 500 ng/mL, 22 hours, IL6 HTRF
Procedure: Human monocyte cell line (THP-1 cells; Catalog # TIB-202, ATCC, Manassas, Va.) were cultured in Roswell Park Memorial Institute (RPMI) 1640 Medium (Catalog #21870-100, Buffalo, N.Y.) with 1% L-glutamine, 1% HEPES, 1% Sodium Pyruvate, 2% Sodium Bicarbonate supplemented with 100 units/mL penicillin, 50 μg/mL streptomycin, 2-mercaptoethanol (0.05 mM) [basal medium] and 10% fetal bovine serum (Catalog #16140089, Life Technologies, Carlsbad, Calif.) at 37° C. and 5% CO2.
THP-1 cells were cultured in basal media with 1% FBS for 24 hours before the start of the assay. Each compound was dissolved in DMSO as a 10 mM stock and used to prepare compound source plates. Serial dilution (1:3, 10-point dose-response curves starting from 10 μM) and compound transfer was performed using the ECHO 550 (Labcyte, Sunnyvale, Calif.) into 384-well white low volume assay plates (Greiner Bio-One) with appropriate DMSO backfill for a final DMSO concentration of 0.1%. THP-1 cells were plated at 5000 cells/well in the 384-well plates and incubated at 37° C. for 2 h. 500 ng/mL of LPS was added after 2 hours and cells were incubated for another 22 hours at 37° C. Plates were spun in a centrifuge for 1 minute at […] and a mixture of anti-IL6 XL665, and anti-IL6 Cryptate diluted in reconstitution buffer (Cisbio Inc.) was added to each well. Following incubation for 3 hrs at room temperature, Homogeneous Time-Resolved Fluorescence (HTRF) was measured using the Envision (Perkin Elmer) at 665 nm and […]. The ratio of fluorescence at 665 nm to 620 nm was used as a readout for IL6 quantification. All samples were processed in duplicate. Readings were normalized to DMSO treated cells and normalized activities were utilized for EC50 calculations using the dose-response log (inhibitor) vs. response-variable slope (four parameters) nonlinear regression feature available in GraphPad Prism 5.0 (or Dotmatics). For EC50 of >10 μM, the percent inhibition at 10 μM is provided.

`Fc1cccc(-c2cccc3[nH]c(-c4n[nH]c5ccc(-c6cccnc6)nc45)cc23)c1` [Compound 4, 3-(4-(3-Fluorophenyl)-1H-indol-2-yl)-5-(pyridin-3-yl)-1H-pyrazolo[4,3-b] pyridine] gave an EC50 [1] of 209 nM, an EC50 (SW480 colon cancer cells) of 9.66 µM and an EC50 [2] of 974 nM. It also gave an EC50 (IL-6 (THP-1 cells)) of 439 nM.
For `O=C(Nc1cncc(-c2ccc3[nH]nc(-c4cc5c(-c6cccc(F)c6)cccc5[nH]4)c3n2)c1)C1CCCCC1` [Compound 23, N-(5-(3-(4-(3-Fluorophenyl)-1H-indol-2-yl)-1H-pyrazolo[4,3-b]pyridin-5-yl)pyridin-3-yl)cyclohexanecarboxamide], the EC50 [1] was 1630 nM, the EC50 (SW480 colon cancer cells) was 6.57 µM and the EC50 [2] was 1280 nM. The EC50 (IL-6 (THP-1 cells)) was 1010 nM.
For `Fc1cccc(-c2cccc3[nH]c(-c4n[nH]c5ccc(-c6cncc(CN7CCC(F)(F)C7)c6)nc45)cc23)c1` [Compound 26, 5-(5-((3,3-Difluoropyrrolidin-1-yl)methyl)pyridin-3-yl)-3-(4-(3-fluorophenyl)-1H-indol-2-yl)-1H-pyrazolo[4,3-b]pyridine], the EC50 [1] was 981 nM, the EC50 (SW480 colon cancer cells) was 3.11 µM and the EC50 [2] was 409 nM. It also gave an EC50 (IL-6 (THP-1 cells)) of 530 nM.
`Cc1ccncc1-c1ccc2[nH]nc(-c3cc4c(-c5ccc(F)cc5)cccc4[nH]3)c2n1` [Compound 33, 3-(4-(4-Fluorophenyl)-1H-indol-2-yl)-5-(4-methylpyridin-3-yl)-1H-pyrazolo [4,3-b]pyridine] gave an EC50 [1] of 1020 nM, an EC50 (SW480 colon cancer cells) of 6.74 µM and an EC50 [2] of 1230 nM. For the same compound, the EC50 (IL-6 (THP-1 cells)) was 388 nM.
With `CC(C)CC(=O)Nc1cncc(-c2ccc3[nH]nc(-c4cc5c(-c6ccccc6F)cccc5[nH]4)c3n2)c1` [Compound 58, N-(5-(3-(4-(2-Fluorophenyl)-1H-indol-2-yl)-1H-pyrazolo[4,3-b]pyridin-5-yl)pyridin-3-yl)-3-methylbutanamide] the EC50 [1] was 254 nM, the EC50 (SW480 colon cancer cells) was 1.21 µM and the EC50 [2] was 628 nM. It also gave an EC50 (IL-6 (THP-1 cells)) of 72 nM.
With `O=C(Nc1cncc(-c2ccc3[nH]nc(-c4cc5c(-c6ccccc6F)cccc5[nH]4)c3n2)c1)C1CC1` [Compound 76, N-(5-(3-(4-(2-Fluorophenyl)-1H-indol-2-yl)-1H-pyrazolo[4,3-b]pyridin-5-yl)pyridin-3-yl)cyclopropanecarboxamide] the EC50 [1] was 164 nM, the EC50 (SW480 colon cancer cells) was 0.895 µM and the EC50 [2] was 502 nM. The EC50 (IL-6 (THP-1 cells)) was 51 nM.
Compound `CC(C)Nc1cncc(-c2ccc3[nH]nc(-c4cc5c(-c6cccnc6)cccc5[nH]4)c3n2)c1` [Compound 96, N-Isopropyl-5-(3-(4-(pyridin-3-yl)-1H-indol-2-yl)-1H-pyrazolo[4,3-b]pyridin-5-yl)pyridin-3-amine] has an EC50 [1] of 107 nM, an EC50 (SW480 colon cancer cells) of 0.604 µM and an EC50 [2] of 214 nM. It also gave an EC50 (IL-6 (THP-1 cells)) of 75 nM.
`c1cncc(-c2ccc3[nH]nc(-c4cc5c(N6CCCCC6)cccc5[nH]4)c3n2)c1` [Compound 172, 3-(4-(Piperidin-1-yl)-1H-indol-2-yl)-5-(pyridin-3-yl)-1H-pyrazolo[4,3-b] pyridine] was tested, and the EC50 [1] was 253 nM, the EC50 (SW480 colon cancer cells) was 2.15 µM and the EC50 [2] was 295 nM. The EC50 (IL-6 (THP-1 cells)) was 126 nM.
For `CN(C)Cc1cncc(-c2ccc3[nH]nc(-c4cc5c(N6CCCCC6)cccc5[nH]4)c3n2)c1` [Compound 181, N,N-Dimethyl-1-(5-(3-(4-(piperidin-1-yl)-1H-indol-2-yl)-1H-pyrazolo[4,3-b]pyridin-5-yl)pyridin-3-yl)methanamine], the EC50 [1] was 899 nM, the EC50 (SW480 colon cancer cells) was 3.15 µM and the EC50 [2] was 870 nM. For the same compound, the EC50 (IL-6 (THP-1 cells)) was 1520 nM.
Work on `c1cc(N2CCCCC2)c2cc(-c3n[nH]c4ccc(-c5cncnc5)nc34)[nH]c2c1` [Compound 195, 3-(4-(Piperidin-1-yl)-1H-indol-2-yl)-5-(pyrimidin-5-yl)-1H-pyrazolo[4,3-b] pyridine] yielded an EC50 [1] of 1180 nM, an EC50 (SW480 colon cancer cells) of 5.59 µM and an EC50 [2] of 1280 nM. The EC50 (IL-6 (THP-1 cells)) was 31 nM.
For `CC(C)CC(=O)Nc1cncc(-c2ccc3[nH]nc(-c4cc5c(N6CCN(C)CC6)cccc5[nH]4)c3n2)c1` [Compound 226, 3-Methyl-N-(5-(3-(4-(4-methylpiperazin-1-yl)-1H-indol-2-yl)-1H-pyrazolo [4,3-b]pyridin-5-yl)pyridin-3-yl)butanamide], the EC50 [1] was 2140 nM, the EC50 (SW480 colon cancer cells) was 1.93 µM and the EC50 [2] was 2550 nM. The EC50 (IL-6 (THP-1 cells)) was 359 nM.
